# Data reported in ChEMBL document CHEMBL3885881, “DrugMatrix”.
# Organism: Rattus norvegicus
# Experiment: DrugMatrix - Regimen: Daily Repeat
# Assay type: toxicity, organism-based, Sprague-Dawley
# Design: regimen Daily Repeat, gender Male, age 6-8 weeks
# Details: in vivo, po, route oral GAVAGE, vehicle .5 % CMC; for ABSOLUTE BASOPHIL / ABSOLUTE EOSINOPHIL / ABSOLUTE LYMPHOCYTE / ABSOLUTE MONOCYTE / ABSOLUTE SEGMENTED NEUTROPHIL / BASOPHIL / EOSINOPHIL / ERYTHROCYTE COUNT / HEMATOCRIT / HEMOGLOBIN / LEUKOCYTE COUNT / LYMPHOCYTE / MEAN CORPUSCULAR HEMOGLOBIN / MEAN CORPUSCULAR HEMOGLOBIN CONCENTRATION / MEAN CORPUSCULAR VOLUME / MONOCYTE / NEUTROPHIL / NUCLEATED RED BLOOD CELLS / PLATELET COUNT: tissue Blood; for ALANINE AMINOTRANSFERASE / ALBUMIN / ALKALINE PHOSPHATASE / ASPARTATE AMINOTRANSFERASE / BLOOD UREA NITROGEN / CARBON DIOXIDE / CHLORIDE / CHOLESTEROL / CREATINE PHOSPHOKINASE / CREATININE / GLUCOSE / LACTATE DEHYDROGENASE / LIPASE / PHOSPHORUS / POTASSIUM / SODIUM / TOTAL BILIRUBIN / TOTAL PROTEIN / URIC ACID: tissue Plasma
# [1] = 88 mg/kg, 72 h, dose level Low, time 3 day
# [2] = 88 mg/kg, 120 h, dose level Low, time 5 day
# [3] = 750 mg/kg, 72 h, dose level High, time 3 day
# [4] = 750 mg/kg, 120 h, dose level High, time 5 day
compound,measurement,setting,value
CCC1(c2ccccc2)C(=O)NCNC1=O [PRIMIDONE],ABSOLUTE BASOPHIL,[1],0 CELLS/uL
same,ABSOLUTE EOSINOPHIL,[1],207.67 CELLS/uL
same,ABSOLUTE LYMPHOCYTE,[1],14556.33 CELLS/uL
same,ABSOLUTE MONOCYTE,[1],206 CELLS/uL
same,ABSOLUTE SEGMENTED NEUTROPHIL,[1],1063.33 CELLS/uL
same,BASOPHIL,[1],0%
same,EOSINOPHIL,[1],1.33%
same,ERYTHROCYTE COUNT,[1],5.49 x10E6/uL
same,HEMATOCRIT,[1],34.53%
same,HEMOGLOBIN,[1],13.03 G/DL
same,LEUKOCYTE COUNT,[1],16.03 x10E3/uL
same,LYMPHOCYTE,[1],90.67%
same,MEAN CORPUSCULAR HEMOGLOBIN,[1],23.87 pg
same,MEAN CORPUSCULAR HEMOGLOBIN CONCENTRATION,[1],37.8 G/DL
same,MEAN CORPUSCULAR VOLUME,[1],63.07 fL
same,MONOCYTE,[1],1.33%
same,NEUTROPHIL,[1],6.67%
same,NUCLEATED RED BLOOD CELLS,[1],0 /100WBC
same,PLATELET COUNT,[1],1338 x10E3/uL
same,ALANINE AMINOTRANSFERASE,[1],44.67 u/L
same,ALBUMIN,[1],4.17 G/DL
same,ALKALINE PHOSPHATASE,[1],329.33 u/L
same,ASPARTATE AMINOTRANSFERASE,[1],77.33 u/L
same,BLOOD UREA NITROGEN,[1],15 mg/dL
same,CARBON DIOXIDE,[1],25.33 mmol/L
same,CHLORIDE,[1],105.33 MEQ/L
same,CHOLESTEROL,[1],72 mg/dL
same,CREATINE PHOSPHOKINASE,[1],356 u/L
same,CREATININE,[1],0.16 mg/dL
same,GLUCOSE,[1],157.67 mg/dL
same,LACTATE DEHYDROGENASE,[1],80 u/L
same,LIPASE,[1],9 u/L
same,PHOSPHORUS,[1],13.8 mg/dL
same,POTASSIUM,[1],6.58 MEQ/L
same,SODIUM,[1],144.83 MEQ/L
same,TOTAL BILIRUBIN,[1],0.2 mg/dL
same,TOTAL PROTEIN,[1],5.83 G/DL
same,URIC ACID,[1],1.93 mg/dL
same,ABSOLUTE BASOPHIL,[2],0 CELLS/uL
same,ABSOLUTE EOSINOPHIL,[2],87 CELLS/uL
same,ABSOLUTE LYMPHOCYTE,[2],14869 CELLS/uL
same,ABSOLUTE MONOCYTE,[2],252 CELLS/uL
same,ABSOLUTE SEGMENTED NEUTROPHIL,[2],1292 CELLS/uL
same,BASOPHIL,[2],0%
same,EOSINOPHIL,[2],0.33%
same,ERYTHROCYTE COUNT,[2],5.5 x10E6/uL
same,HEMATOCRIT,[2],34.07%
same,HEMOGLOBIN,[2],13.03 G/DL
same,LEUKOCYTE COUNT,[2],16.5 x10E3/uL
same,LYMPHOCYTE,[2],91.33%
same,MEAN CORPUSCULAR HEMOGLOBIN,[2],23.67 pg
same,MEAN CORPUSCULAR HEMOGLOBIN CONCENTRATION,[2],38.3 G/DL
same,MEAN CORPUSCULAR VOLUME,[2],61.9 fL
same,MONOCYTE,[2],1.33%
same,NEUTROPHIL,[2],7%
same,NUCLEATED RED BLOOD CELLS,[2],0 /100WBC
same,PLATELET COUNT,[2],1298.67 x10E3/uL
same,ALANINE AMINOTRANSFERASE,[2],49.67 u/L
same,ALBUMIN,[2],3.93 G/DL
same,ALKALINE PHOSPHATASE,[2],300.67 u/L
same,ASPARTATE AMINOTRANSFERASE,[2],79.67 u/L
same,BLOOD UREA NITROGEN,[2],16.67 mg/dL
same,CARBON DIOXIDE,[2],27.67 mmol/L
same,CHLORIDE,[2],106.67 MEQ/L
same,CHOLESTEROL,[2],63.67 mg/dL
same,CREATINE PHOSPHOKINASE,[2],421.67 u/L
same,CREATININE,[2],0.21 mg/dL
same,GLUCOSE,[2],162 mg/dL
same,LACTATE DEHYDROGENASE,[2],161 u/L
same,LIPASE,[2],8.67 u/L
same,PHOSPHORUS,[2],13.87 mg/dL
same,POTASSIUM,[2],6.54 MEQ/L
same,SODIUM,[2],145.5 MEQ/L
same,TOTAL BILIRUBIN,[2],0.2 mg/dL
same,TOTAL PROTEIN,[2],6.03 G/DL
same,URIC ACID,[2],2.03 mg/dL
same,ABSOLUTE BASOPHIL,[3],0 CELLS/uL
same,ABSOLUTE EOSINOPHIL,[3],107 CELLS/uL
same,ABSOLUTE LYMPHOCYTE,[3],6934.67 CELLS/uL
same,ABSOLUTE MONOCYTE,[3],246.33 CELLS/uL
same,ABSOLUTE SEGMENTED NEUTROPHIL,[3],1312 CELLS/uL
same,BASOPHIL,[3],0%
same,EOSINOPHIL,[3],1%
same,ERYTHROCYTE COUNT,[3],6.1 x10E6/uL
same,HEMATOCRIT,[3],37.33%
same,HEMOGLOBIN,[3],14.33 G/DL
same,LEUKOCYTE COUNT,[3],8.6 x10E3/uL
same,LYMPHOCYTE,[3],79.33%
same,MEAN CORPUSCULAR HEMOGLOBIN,[3],23.6 pg
same,MEAN CORPUSCULAR HEMOGLOBIN CONCENTRATION,[3],38.3 G/DL
same,MEAN CORPUSCULAR VOLUME,[3],61.67 fL
same,MONOCYTE,[3],3%
same,NEUTROPHIL,[3],16.67%
same,NUCLEATED RED BLOOD CELLS,[3],0.33 /100WBC
same,PLATELET COUNT,[3],1338.67 x10E3/uL
same,ALANINE AMINOTRANSFERASE,[3],48.5 u/L
same,ALBUMIN,[3],4.73 G/DL
same,ALKALINE PHOSPHATASE,[3],307 u/L
same,ASPARTATE AMINOTRANSFERASE,[3],85 u/L
same,BLOOD UREA NITROGEN,[3],15.5 mg/dL
same,CARBON DIOXIDE,[3],26.33 mmol/L
same,CHLORIDE,[3],107.5 MEQ/L
same,CHOLESTEROL,[3],66.67 mg/dL
same,CREATINE PHOSPHOKINASE,[3],138 u/L
same,CREATININE,[3],0.24 mg/dL
same,GLUCOSE,[3],144.33 mg/dL
same,LACTATE DEHYDROGENASE,[3],137.33 u/L
same,LIPASE,[3],8.5 u/L
same,PHOSPHORUS,[3],10.5 mg/dL
same,POTASSIUM,[3],5.94 MEQ/L
same,SODIUM,[3],150.9 MEQ/L
same,TOTAL BILIRUBIN,[3],0.3 mg/dL
same,TOTAL PROTEIN,[3],6.2 G/DL
same,URIC ACID,[3],1 mg/dL
same,ABSOLUTE BASOPHIL,[4],0 CELLS/uL
same,ABSOLUTE EOSINOPHIL,[4],136.67 CELLS/uL
same,ABSOLUTE LYMPHOCYTE,[4],11870 CELLS/uL
same,ABSOLUTE MONOCYTE,[4],38.33 CELLS/uL
same,ABSOLUTE SEGMENTED NEUTROPHIL,[4],755 CELLS/uL
same,BASOPHIL,[4],0%
same,EOSINOPHIL,[4],1%
same,ERYTHROCYTE COUNT,[4],5.98 x10E6/uL
same,HEMATOCRIT,[4],37.3%
same,HEMOGLOBIN,[4],13.87 G/DL
same,LEUKOCYTE COUNT,[4],12.8 x10E3/uL
same,LYMPHOCYTE,[4],92.67%
same,MEAN CORPUSCULAR HEMOGLOBIN,[4],23.17 pg
same,MEAN CORPUSCULAR HEMOGLOBIN CONCENTRATION,[4],37.17 G/DL
same,MEAN CORPUSCULAR VOLUME,[4],62.37 fL
same,MONOCYTE,[4],0.33%
same,NEUTROPHIL,[4],6%
same,NUCLEATED RED BLOOD CELLS,[4],0 /100WBC
same,PLATELET COUNT,[4],1320.33 x10E3/uL
same,ALANINE AMINOTRANSFERASE,[4],59.67 u/L
same,ALBUMIN,[4],4.13 G/DL
same,ALKALINE PHOSPHATASE,[4],421 u/L
same,ASPARTATE AMINOTRANSFERASE,[4],98.33 u/L
same,BLOOD UREA NITROGEN,[4],15 mg/dL
same,CARBON DIOXIDE,[4],25.33 mmol/L
same,CHLORIDE,[4],105.33 MEQ/L
same,CHOLESTEROL,[4],68.33 mg/dL
same,CREATINE PHOSPHOKINASE,[4],186.67 u/L
same,CREATININE,[4],0.18 mg/dL
same,GLUCOSE,[4],159.33 mg/dL
same,LACTATE DEHYDROGENASE,[4],96 u/L
same,LIPASE,[4],9 u/L
same,PHOSPHORUS,[4],13.2 mg/dL
same,POTASSIUM,[4],6.32 MEQ/L
same,SODIUM,[4],146.03 MEQ/L
same,TOTAL BILIRUBIN,[4],0.2 mg/dL
same,TOTAL PROTEIN,[4],6.17 G/DL
same,URIC ACID,[4],2.07 mg/dL
